Results: patent US11098055B2, “Ester ACC inhibitors and uses thereof” (Gilead Apollo, LLC, priority 2015, dated 2021)
≈ marks a conversion by molar mass, not a printed value.

Legend:
fACC2 = fACC2 (UniProt Q00955); assay: In vitro ACC2 inhibition assay (ADP-Glo), fungal ACC2; format: biochemical
Experimental: An exemplary procedure for the in vitro ACC inhibition assay, which can be used to determine the inhibitory action of compounds of the invention toward either human (hACC2) or fungal (fACC2) ACC2, follows. The ADP-Glo™ Kinase Assay kit from Promega was used. The ADP-Glo™ Kinase Assay is a luminescent ADP detection assay to measure enzymatic activity by quantifying the amount of ADP produced during an enzyme reaction. The assay is performed in two steps; first, after the enzyme reaction, an equal volume of ADP-Glo™ Reagent is added to terminate the reaction and deplete the remaining ATP. Second, the Kinase Detection Reagent is added to simultaneously convert ADP to ATP and allow the newly synthesized ATP to be measured using a luciferase/luciferin reaction. Luminescence can be correlated to ADP concentrations by using an ATP-to-ADP conversion curve. The detailed procedure is as follows. 50 μL of the compound being tested (600 μM in DMSO) was added to a 384-well dilution plate. The compound was diluted 1:3 in succession in DMSO for each row for 11 wells. 0.5 μL ACC2 working solution was added to 384-well white Optiplate assay plate. 0.5 μL diluted compound solution in each column from step 2 was added to assay plate, each row containing 2 replicates. For the last 2 rows, 0.5 μL negative control (DMSO) was added in one row and 0.5 μL positive control (compound I-97) in the other. The plates were incubated at room temperature for 15 minutes. 5 μL substrate working solution was added to each well to initiate reaction. Final ACC2 reaction concentrations consist of: 5 nM ACC2, 20 μM ATP, 20 μM acetyl-CoA, 12 mM NaHCO3, 0.01% Brij35, 2 mM DTT, 5% DMSO, test compound concentrations: 30 μM, 10 μM, 3.33 μM, 1.11 μM, 0.37 μM, 0.123 μM, 0.0411 μM, 0.0137 μM, 0.00457 μM, 0.00152 μM, and 0.00051 μM. Plates were incubated at room temperature for 60 minutes. 10 μL ADP glo reagent was added. Plates were incubated at room temperature for 40 minutes. 20 μL kinase detection reagent was added. Plates were incubated at room temperature for 40 minutes, and then read on a Perkin Elmer EnVision 2104 plate reader for luminescence as Relative Light Units (RLU).
Data for each concentration, as well as the positive and negative controls, were averaged, and the standard deviation calculated. Percent inhibition was calculated by the formula: 100×(average negative control−compound)/(average negative control−average positive control). The IC50 for each compound was calculated by fitting the data with a non-linear regression equation: Y=Bottom+(Top−Bottom)/(1+10^((Log IC50−X)*HillSlope)), where X is the log of compound concentration and Y is percent inhibition.

C. albicans ATCC 90028 = assay: Anti-Fungal (Candida) Activity Assay, broth microtiter MIC; format: cell-based; conditions: ATCC90028, 48 h, 3 replicates, MIC read at 48 h
Experimental: (§1) Compounds of the present invention were evaluated in an Anti-Fungal Activity Assay. An exemplary procedure for the assay, which measures the susceptibility of various Candida species to anti-fungal compounds, follows. Compounds to be tested (including fluconazole and amphotericin B) were dissolved in DMSO to obtain a solution having a concentration of 1 mg/mL. These stock solutions were sterile filtered using a 0.22 um nylon syringe filter, then diluted in sterile water to achieve a final concentration of 128 μg/mL.
(§2) All species were grown from frozen stock by directly plating on to freshly prepared Sabouraud Dextrose agar (BD, Difco) and incubated overnight in ambient air at 35° C. for 24 h. A direct suspension was prepared in RPMI 1640+MOPS (Lonza, Biowhittaker) by taking individual colonies from the overnight cultures using sterile swabs soaked in sterile saline. The concentration of the suspension was determined using pre-determined standard curves. These suspensions were then diluted down to 5×10^3 CFU/mL to achieve a final concentration of 2.5×10^3 CFU/mL once added to the microtiter plate as per CLSI guidelines (M27-A3, Vol. 28 No. 14).
(§3) Broth microtiter MIC challenge plates were prepared following CLSI guidelines (M27-A3, Vol. 28 No. 14). The original CLSI guidelines focused on reading Candida MICs after 48 h of incubation. As reading after only 24 h offers a clear advantage of patient care, QC limits are being established for all drugs at 24 h. That being said there are no known interpretive breakpoints for amphotericin B at 24 h and the current fluconazole interpretive breakpoints are based on a 48 h reading. The MIC for the test compounds were recorded at 48 h. All MIC determinations were achieved by visually comparing the growth found in the antibiotic challenged wells to that of the growth control.

[1] = system: C. parapsilosis ATCC 22019; assay: as above; format: cell-based; conditions: Lodderomyces parapsilosis, ATCC22019, 48 h, 3 replicates, MIC read at 48 h
Experimental: as §1, §2, §3

C. krusei ATCC 6258 = assay: as above; format: cell-based, Candida krusei; conditions: Pichia kudriavzevii, ATCC6258, 48 h, 3 replicates, MIC read at 48 h
Experimental: as §1, §2, §3

fACC2, sequence (Q00955 whole entry): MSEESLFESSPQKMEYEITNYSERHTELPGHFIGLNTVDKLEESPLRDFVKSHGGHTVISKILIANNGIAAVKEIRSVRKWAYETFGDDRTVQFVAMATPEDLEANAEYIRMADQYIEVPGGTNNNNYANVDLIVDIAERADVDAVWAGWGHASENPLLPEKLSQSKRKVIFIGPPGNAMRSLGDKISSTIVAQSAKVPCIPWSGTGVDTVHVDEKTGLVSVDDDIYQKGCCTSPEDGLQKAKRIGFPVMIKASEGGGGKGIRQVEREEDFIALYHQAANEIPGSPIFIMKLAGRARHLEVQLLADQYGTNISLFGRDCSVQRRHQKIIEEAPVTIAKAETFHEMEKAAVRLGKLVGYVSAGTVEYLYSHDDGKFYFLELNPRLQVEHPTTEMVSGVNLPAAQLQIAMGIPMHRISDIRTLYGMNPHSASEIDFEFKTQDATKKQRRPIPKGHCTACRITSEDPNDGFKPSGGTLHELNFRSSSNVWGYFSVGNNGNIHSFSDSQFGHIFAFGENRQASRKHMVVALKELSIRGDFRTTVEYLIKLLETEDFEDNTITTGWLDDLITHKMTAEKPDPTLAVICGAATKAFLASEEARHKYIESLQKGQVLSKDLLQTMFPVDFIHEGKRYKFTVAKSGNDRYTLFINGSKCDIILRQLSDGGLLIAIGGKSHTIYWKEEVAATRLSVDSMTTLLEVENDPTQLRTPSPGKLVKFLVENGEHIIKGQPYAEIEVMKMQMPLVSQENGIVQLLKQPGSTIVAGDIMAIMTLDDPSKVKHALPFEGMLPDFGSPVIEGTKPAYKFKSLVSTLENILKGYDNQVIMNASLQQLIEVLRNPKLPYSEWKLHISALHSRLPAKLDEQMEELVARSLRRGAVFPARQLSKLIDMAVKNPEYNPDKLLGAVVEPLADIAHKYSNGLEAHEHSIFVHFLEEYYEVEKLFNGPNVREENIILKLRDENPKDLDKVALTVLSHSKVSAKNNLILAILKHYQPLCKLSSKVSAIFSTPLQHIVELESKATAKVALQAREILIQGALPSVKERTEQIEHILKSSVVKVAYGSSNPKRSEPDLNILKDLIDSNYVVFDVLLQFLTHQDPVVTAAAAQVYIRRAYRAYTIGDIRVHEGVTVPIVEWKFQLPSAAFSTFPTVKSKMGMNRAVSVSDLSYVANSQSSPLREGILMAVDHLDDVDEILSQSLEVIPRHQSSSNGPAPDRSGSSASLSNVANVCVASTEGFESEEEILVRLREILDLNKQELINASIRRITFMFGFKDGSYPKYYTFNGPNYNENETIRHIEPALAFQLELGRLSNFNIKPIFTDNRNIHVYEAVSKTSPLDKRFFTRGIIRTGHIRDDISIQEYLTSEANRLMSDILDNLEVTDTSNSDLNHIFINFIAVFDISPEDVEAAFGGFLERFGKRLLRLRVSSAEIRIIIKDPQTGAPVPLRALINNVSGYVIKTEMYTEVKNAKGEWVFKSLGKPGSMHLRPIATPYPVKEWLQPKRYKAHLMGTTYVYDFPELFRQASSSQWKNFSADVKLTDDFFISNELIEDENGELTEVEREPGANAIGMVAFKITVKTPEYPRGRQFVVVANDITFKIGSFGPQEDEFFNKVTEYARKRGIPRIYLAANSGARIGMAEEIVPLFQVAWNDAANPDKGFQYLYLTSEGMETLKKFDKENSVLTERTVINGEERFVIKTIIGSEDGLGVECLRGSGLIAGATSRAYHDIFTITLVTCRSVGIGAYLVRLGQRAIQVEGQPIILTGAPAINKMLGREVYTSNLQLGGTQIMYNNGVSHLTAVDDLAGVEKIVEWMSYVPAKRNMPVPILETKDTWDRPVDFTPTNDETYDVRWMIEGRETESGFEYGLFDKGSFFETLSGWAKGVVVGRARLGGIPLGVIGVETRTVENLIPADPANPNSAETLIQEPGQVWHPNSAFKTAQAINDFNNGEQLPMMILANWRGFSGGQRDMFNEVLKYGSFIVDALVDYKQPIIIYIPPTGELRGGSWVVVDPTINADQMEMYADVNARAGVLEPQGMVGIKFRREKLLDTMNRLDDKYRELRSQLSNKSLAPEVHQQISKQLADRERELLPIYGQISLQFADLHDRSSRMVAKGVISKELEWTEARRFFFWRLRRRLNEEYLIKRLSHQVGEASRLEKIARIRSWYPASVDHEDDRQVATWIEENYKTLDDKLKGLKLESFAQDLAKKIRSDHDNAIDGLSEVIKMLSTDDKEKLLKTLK

SMILES	IC50 (fACC2; Table 2b (additional results))	MIC (C. albicans ATCC 90028; Table 3b (additional results))	MIC ([1]; Table 3b (additional results))	MIC (C. krusei ATCC 6258; Table 3b (additional results))	IC50 (fACC2; Table 2a)	MIC (C. albicans ATCC 90028; Table 3a)	MIC ([1]; Table 3a)	MIC (C. krusei ATCC 6258; Table 3a)
CCNC(=O)[C@H](C)n1c(=O)c2c(C)c(C(=O)OCC)sc2n(C[C@H](OCCC#N)c2cc(F)ccc2OC)c1=O [Compound I-42, ethyl 1-((R)-2-(2-cyanoethoxy)-2-(5-fluoro-2-methoxyphenyl)ethyl)-3-((S)-1-(ethylamino)-1-oxopropan-2-yl)-5-methyl-2,4-dioxo-1,2,3,4-tetrahydrothieno[2,3-d]pyrimidine-6-carboxylate]	0.3 to 3 nM	2.1 to 4 µg/mL (≈ 3.65 to 6.96 µM)	2.1 to 4 µg/mL (≈ 3.65 to 6.96 µM)	2.1 to 4 µg/mL (≈ 3.65 to 6.96 µM)				
CCNC(=O)C(C)(C)n1c(=O)c2c(C)c(C(=O)OCC)sc2n(C[C@H](OCCC#N)c2ccccc2OC)c1=O [Compound I-32, ethyl (R)-1-(2-(2-cyanoethoxy)-2-(2-methoxyphenyl)ethyl)-3-(1-(ethylamino)-2-methyl-1-oxopropan-2-yl)-5-methyl-2,4-dioxo-1,2,3,4-tetrahydrothieno[2,3-d]pyrimidine-6-carboxylate]	0.3 to 3 nM	2.1 to 4 µg/mL (≈ 3.68 to 7.01 µM)	> 4.1 µg/mL	0.25 to 1 µg/mL (≈ 0.438 to 1.75 µM)				
CCOC(=O)c1sc2c(c1C)c(=O)n(C(C)(C)C(=O)N1CCCC1)c(=O)n2C[C@H](OCCO)c1cc(F)ccc1OC [Compound I-12, (R)-ethyl 1-(2-(5-fluoro-2-methoxyphenyl)-2-(2-hydroxy-ethoxy)ethyl)-5-methyl-3-(2-methyl-1-oxo-1-(pyrrolidin-1-yl)propan-2-yl)-2,4-dioxo-1,2,3,4-tetrahydrothieno[2,3-d]pyrimidine-6-carboxylate]	0.3 to 3 nM	2.1 to 4 µg/mL (≈ 3.47 to 6.6 µM)	0.25 to 1 µg/mL (≈ 0.413 to 1.65 µM)	2.1 to 4 µg/mL (≈ 3.47 to 6.6 µM)	0.6 to 3 nM	> 4.1 µg/mL	> 4.1 µg/mL	2.1 to 4 µg/mL (≈ 3.47 to 6.6 µM)
CCOC(=O)c1sc2c(c1C)c(=O)n([C@@H](C)C(=O)NC(C)C)c(=O)n2C[C@H](O)c1cc(F)ccc1OC [Compound I-44, ethyl 1-((R)-2-(5-fluoro-2-methoxyphenyl)-2-hydroxyethyl)-3-((S)-1-(isopropylamino)-1-oxopropan-2-yl)-5-methyl-2,4-dioxo-1,2,3,4-tetrahydrothieno[2,3-d]pyrimidine-6-carboxylate]	10 to 40 nM	2.1 to 4 µg/mL (≈ 3.92 to 7.47 µM)	2.1 to 4 µg/mL (≈ 3.92 to 7.47 µM)	2.1 to 4 µg/mL (≈ 3.92 to 7.47 µM)				
CCNC(=O)C(C)(C)n1c(=O)c2c(C)c(C(=O)OCC)sc2n(C[C@H](OC(C)C)c2ccccc2OC)c1=O [Compound I-4, (R)-ethyl 3-(1-(ethylamino)-2-methyl-1-oxopropan-2-yl)-1-(2-isopropoxy-2-(2-methoxyphenyl)ethyl)-5-methyl-2,4-dioxo-1,2,3,4-tetrahydrothieno[2,3-d]pyrimidine-6-carboxylate]	3 to 10 nM	2.1 to 4 µg/mL (≈ 3.75 to 7.15 µM)	2.1 to 4 µg/mL (≈ 3.75 to 7.15 µM)	2.1 to 4 µg/mL (≈ 3.75 to 7.15 µM)	3 to 10 nM	2.1 to 4 µg/mL (≈ 3.75 to 7.15 µM)	> 4.1 µg/mL	2.1 to 4 µg/mL (≈ 3.75 to 7.15 µM)
CCOC(=O)c1sc2c(c1C)c(=O)n(C(C)(C)C(=O)NC(C)C)c(=O)n2C[C@H](OCCOC)c1cc(F)ccc1OC [Compound I-11, (R)-ethyl 1-(2-(5-fluoro-2-methoxyphenyl)-2-(2-methoxy-ethoxy)ethyl)-3-(1-(isopropylamino)-2-methyl-1-oxopropan-2-yl)-5-methyl-2,4-dioxo-1,2,3,4-tetrahydrothieno[2,3-d]pyrimidine-6-carboxylate]	0.3 to 3 nM	2.1 to 4 µg/mL (≈ 3.46 to 6.58 µM)	1.1 to 2 µg/mL (≈ 1.81 to 3.29 µM)	2.1 to 4 µg/mL (≈ 3.46 to 6.58 µM)	0.6 to 3 nM	2.1 to 4 µg/mL (≈ 3.46 to 6.58 µM)	2.1 to 4 µg/mL (≈ 3.46 to 6.58 µM)	2.1 to 4 µg/mL (≈ 3.46 to 6.58 µM)
CCOC(=O)c1sc2c(c1C)c(=O)n([C@H](C)C(=O)NC(C)C)c(=O)n2C[C@H](OCCC#N)c1cc(F)ccc1OC [Compound I-21, ethyl 1-((R)-2-(2-cyanoethoxy)-2-(5-fluoro-2-methoxyphenyl)ethyl)-3-((R)-1-(isopropylamino)-1-oxopropan-2-yl)-5-methyl-2,4-dioxo-1,2,3,4-tetrahydrothieno[2,3-d]pyrimidine-6-carboxylate]	0.3 to 3 nM	1.1 to 2 µg/mL (≈ 1.87 to 3.4 µM)	2.1 to 4 µg/mL (≈ 3.57 to 6.8 µM)	2.1 to 4 µg/mL (≈ 3.57 to 6.8 µM)				
CCOC(=O)c1sc2c(c1C)c(=O)n(C(C)(C)C(=O)N1CCCC1)c(=O)n2C[C@H](OC1CCOCC1)c1ccccc1OC [Compound I-3, ethyl (R)-1-(2-(2-methoxyphenyl)-2-((tetrahydro-2H-pyran-4-yl)oxy)ethyl)-5-methyl-3-(2-methyl-1-oxo-1-(pyrrolidin-1-yl)propan-2-yl)-2,4-dioxo-1,2,3,4-tetrahydrothieno[2,3-d]pyrimidine-6-carboxylate]	0.3 to 3 nM	0.25 to 1 µg/mL (≈ 0.398 to 1.59 µM)	0.25 to 1 µg/mL (≈ 0.398 to 1.59 µM)	2.1 to 4 µg/mL (≈ 3.35 to 6.37 µM)	0.6 to 3 nM	0.25 to 1 µg/mL (≈ 0.398 to 1.59 µM)	0.25 to 1 µg/mL (≈ 0.398 to 1.59 µM)	0.25 to 1 µg/mL (≈ 0.398 to 1.59 µM)
CCOC(=O)c1sc2c(c1C)c(=O)n(C(C)(C)C(=O)N1CCCCC1)c(=O)n2C[C@H](OC(C)C)c1ccccc1OC [Compound I-6, (R)-ethyl 1-(2-isopropoxy-2-(2-methoxyphenyl)ethyl)-5-methyl-3-(2-methyl-1-oxo-1-(piperidin-1-yl)propan-2-yl)-2,4-dioxo-1,2,3,4-tetrahydrothieno[2,3-d]pyrimidine-6-carboxylate]	0.3 to 3 nM	2.1 to 4 µg/mL (≈ 3.5 to 6.67 µM)	2.1 to 4 µg/mL (≈ 3.5 to 6.67 µM)	2.1 to 4 µg/mL (≈ 3.5 to 6.67 µM)	0.6 to 3 nM	2.1 to 4 µg/mL (≈ 3.5 to 6.67 µM)	> 4.1 µg/mL	2.1 to 4 µg/mL (≈ 3.5 to 6.67 µM)
CCOC(=O)c1sc2c(c1C)c(=O)n(C(C)(C)C(=O)NC(C)C)c(=O)n2C[C@H](OCCC#N)c1ccccc1OC [Compound I-31, ethyl (R)-1-(2-(2-cyanoethoxy)-2-(2-methoxyphenyl)ethyl)-3-(1-(isopropylamino)-2-methyl-1-oxopropan-2-yl)-5-methyl-2,4-dioxo-1,2,3,4-tetrahydrothieno[2,3-d]pyrimidine-6-carboxylate]	0.3 to 3 nM	0.25 to 1 µg/mL (≈ 0.428 to 1.71 µM)	1.1 to 2 µg/mL (≈ 1.88 to 3.42 µM)	0.25 to 1 µg/mL (≈ 0.428 to 1.71 µM)				
CCOC(=O)c1sc2c(c1C)c(=O)n(C(C)(C)C(=O)NC(C)C)c(=O)n2C[C@H](O)c1cc(F)ccc1OC [Compound I-19, (R)-ethyl 1-(2-(5-fluoro-2-methoxyphenyl)-2-hydroxyethyl)-3-(1-(isopropylamino)-2-methyl-1-oxopropan-2-yl)-5-methyl-2,4-dioxo-1,2,3,4-tetrahydrothieno[2,3-d]pyrimidine-6-carboxylate]		0.25 to 1 µg/mL (≈ 0.455 to 1.82 µM)	2.1 to 4 µg/mL (≈ 3.82 to 7.28 µM)	0.25 to 1 µg/mL (≈ 0.455 to 1.82 µM)				
